# Data reported in patent US20210196751A1, “METHODS OF CANCER TREATMENT USING AN ATR INHIBITOR” (Vertex Pharmaceuticals Incorporated, priority 2017, published 2021).
# Test system: panel of 552 cancer cell lines
# Assay: Growth inhibition (ATPLite) of ATR inhibitor in combination with cisplatin or gemcitabine; synergy score from AUC difference
# Format: cell-based
# Details: 96 hours; for synergy when combined with cisplatin: in combination with cisplatin; for synergy when combined with gemcitabine: in combination with gemcitabine
# Procedure: Cell Culture Methods. Cells were removed from liquid nitrogen storage, thawed and expanded in appropriate growth media. Once expanded, cells were seeded in 384-well tissue culture treated plates at 500 cells per well. […] At the end of either 0 hours or 96 hours, cell status was analyzed using ATPLite (adenosine triphosphate monitoring system; Perkin Elmer) to assess the biological response of cells to drug combinations.
# In this study, growth inhibition (GI) was used as the primary endpoint. ATP monitoring was performed using ATPLite, which allows for the monitoring of cytocidal, cytostatic and proliferative effects of drugs on cells.
# Data Analysis to Assess Synergy of Combination Treatments. […] Synergy was evaluated using the sum of the AUC (Area Under the Curve) difference.
# Briefly, combination treatment effect was calculated as the AUC normalized to the single agent effect of the ATR inhibitor compound. Total synergy or antagonism was calculated as the difference between the normalized combination AUC and the genotoxin single agent AUC. As before, the synergy score was normalized by dividing the total synergy score by the total number of regimens used.
Structure (SMILES),synergy when combined with cisplatin,synergy when combined with gemcitabine
Nc1nn2cc(F)cnc2c1C(=O)Nc1cncc(F)c1N1CCC(C(=O)N2CCN(C3COC3)CC2)CC1 [I-G-32],synergistic,synergistic
CNCc1ccc(-c2cc(-c3nc(-c4ccc(S(=O)(=O)C(C)C)cc4)cnc3N)on2)cc1 [IIA-7],synergistic,synergistic
